From US20240182893A1, “INHIBITION OF FGR REDUCES FIBROSIS” (UNIVERSITY OF PITTSBURGH-OF THE COMMONWEALTH SYSTEM OF …, priority 2021, published 2024)
Entries after “also recorded” stand apart in the source; their conditions may differ.

Tests used:
[1] = mice; cited from earlier work
[2] = system: target C57BL/6 stromal cells; experiment: Non-contact transwell coculture: irradiated senescent tdTOMp16+ stromal cells on top, target cells at bottom, RT-qPCR of profibrotic genes; format: cell-based, mouse
Procedure: It was also confirmed that the RIS cells showing upregulation of Fgr RNA by heat map also had higher RNA levels. Validation of RNA for p16 and p21, as well as Fgr was carried out (FIG. 5A-FIG. 5C). To establish that irradiated tdTOMp16+ senescent cells induce profibrotic genes, a C57BL/6 target cell line, and a noncontact transwell co-culture system was used (FIG. 6A). Irradiated red cells were compared to 0 Gy or irradiated non-red cells. Sorted red cells, were placed on the top of each well and C57/B6 mouse stromal target cells were plated at the bottom well and observed for two weeks. There was significant induction of collagen 1al and collagen 3 in C57/B6 target cells by RIS red cells (FIG. 6B-FIG. 6C). […] (FIG. 6D).
Transwell experiment: Control and Fgr knockdown stable cell lines were irradiated with 5 Gy by Cesium Gamma Cell dose rate 300 cGy/min. Ten days after radiation, red senescent and non-red non-senescent cells were sorted using MoFlo Astrios Cell Sorter (Beckman Coulter). Senescent and non-senescent cells were plated on the top well of the transwell with a […] pore size (Coster, Cat. No. 3412) and the target C57BL/6 cell line for the evaluation of fibrotic markers was plated at the bottom. 2 weeks later total RNA was extracted from the target C57BL/6 cells and evaluated by qPCR for Collagen 3 (Mm01254476_m1) and TGF-beta (Mm01191861_m1). GAPDH (Mm99999915_g1) was used as the loading control.
Transwell coculture experiments. A Transwell system (0.4-μm pore size, polyester membrane; Corning, Kennebunk, ME) was used (Ejaz A et al. Stem Cells. 2019, 37, 791-802). C57BL/6 mouse bone marrow stromal cells or mouse primary tail fibroblasts were cultured in the bottom surface of a 9-cm^2 culture dishes. Above the adherent layer in the transwell, tdTOMp16+ bone marrow stromal cells (non-irradiated, irradiated non-sorted, irradiated, and sorted senescent tdTOM+, or irradiated non-senescent tdTOM− cells) were cultured in the upper transwell. […] For the stable Fgr shRNA cells, non-target control and Fgr shRNA knockdown cell lines were also irradiated and sorted following the same protocol. Briefly, tdTOMp16+ cells were irradiated and after 10 days of radiation, the cells were FACS sorted for tdTOM+ and tdTOM− cells and 3×10^5 cells added on the top wells in each case. Coculture was maintained for another 10 days. The target cells from the bottom well were lysed, and total RNA was isolated using TRizol (Sigma) reagent following the manufacturer's protocol. cDNA was synthesized, and expression of profibrotic genes (TGF-β1, CTGF, collagens (Col1, Col3), and α-SMA were analyzed using gene-specific TaqMan primers employing quantitative real-time polymerase chain reaction (PCR).
In vitro transwell experiments. Senescent bone marrow derived irradiated (5 Gy, subconfluent cultures held for 10 days) tdTOMp16+ cells were sorted for TOM+ (red) color and placed in Transwell cultures. Two types of transwell experiments were carried out. For induction of fibrosis biomarkers in target cells, senescent cells were placed into the top chamber separated from target mesenchymal stem cells (MSCs) derived from the adherent layer of long term C57Bl/6 mouse bone marrow cultures in the bottom chamber by a 0.4-micron pore size membrane. […] The migration of gfp+ cells through the filter to the bottom compartment was measured by imaging the bottom wells and counting gfp+ cells relative to numbers of senescent TOM+ (red) cells. […]

[3] = 10 nM TL02-59, 10 days, FIG. 23

For `CCN1CCN(Cc2ccc(NC(=O)c3ccc(C)c(Oc4ncnc5cc(OC)c(OC)cc45)c3)cc2C(F)(F)F)CC1` [TL02-59], which oral bioavailability [1] is on record?
Its oral bioavailability is “orally bioavailable”.

What about the plasma half-life [1] of the same compound?
Its plasma half-life is 6 h.

What about the “induction of TGF-beta in target cells by tdTOM+ senescent cells (RT-qPCR)” value [2, 3] of the same compound?
The value was “significantly inhibited induction; also recorded: abrogates the induction of profibrotic genes”.

What about the “induction of collagen 3 in target cells by tdTOM+ senescent cells (RT-qPCR)” value [2, 3] of the same compound?
Its value is “significantly inhibited induction; also recorded: abrogates the induction of profibrotic genes”.

And the “induction of fibrosis biomarkers TGF-β and Collagen 3 in target mesenchymal stem cells” value ([2]; TL02-59 10 nM, 10 days, FIG. 44)?
Its value is “blocked; also recorded: inhibits the induction”.

What about the “induction of collagen 3 in target cells by RIS red cells” value ([2]; TL02-59 1 μm, transwell, after 2 weeks, FIG. 6D) of the same compound?
The value was “reduced the induction of collagen 3; also recorded: blocks senescent cell induction”.

And the “induction of biomarkers of fibrosis (collagen 1a1, collagen 3, TGF-β) in target cells by RIS cells” value ([2]; transwell co-culture, tdTOMp16+ stromal cell line)?
The value was “abrogates the induction of biomarkers of fibrosis; also recorded: abrogated senescent cell induction of profibrotic genes”.
